In patent US20240310365A1, “DEVICE FOR EVALUATING INNER EAR DRUG DELIVERY” (North Carolina State University, priority 2023, published 2024):

What was measured:
[1] = humans; after intratympanic DSP 0.4-1.8 ml of 4 mg/ml; cited from earlier work
porcine RWM = experiment: Ex-vivo porcine RWM device permeability measurement; format: in vitro ADME; settings: Dex ~400 μg/ml

- time for passage through the porcine RWM (porcine RWM): < 0.5 h
Compound: C[C@@H]1C[C@H]2[C@@H]3CCC4=CC(=O)C=C[C@]4(C)[C@@]3(F)[C@@H](O)C[C@]2(C)[C@@]1(O)C(=O)CO [Dex, dexamethasone]
- dexamethasone concentration in perilymph [1]: about 1.4 μg/
